Earlier results as cited in patent US20250078975A1, “METHODS OF PREDICTING PATIENT TREATMENT RESPONSE AND RESISTANCE VIA SINGLE-CELL TRANSCRIPTOMICS OF THEIR TUMORS” (The USA, as represented by the Secretary, Department of …, priority 2023, published 2025).

Test system: cancer cell lines
Conditions: through downregulation of Akt (Bartholomeusz et al. 2011)

In the case of `Nc1ccn([C@@H]2O[C@H](CO)[C@@H](O)C2(F)F)c(=O)n1` [gemcitabine], the “Effect on erlotinib resistance” value is listed as “can overcome erlotinib resistance”.
